These results are taken from US20060166905A1, “Aivlosin for the treatment of disease due to brachyspira pilosicoli or ornithobacterium rhinotracheale” (ECO Animal Health, LTD., priority 2003, published 2006).

≈ marks a conversion by molar mass, not a printed value. Where two headings read alike, the source gives them in different places. A value given as a limit tells only on which side of the number the result lay.

Common to all, as to assay type: cell-based
Assay [1] relates to Ornithobacterium rhinotracheale. Kind of assay: MIC test, twofold dilution in serum broth. To be noted: for MIC: Ornithobacterium rhinotracheale, read-out: concentration that inhibited the growth (MIC). How it is done:
Testing of Aivlosin and Tilmicosin (Pulmotil) Against Ornithobacterium rhinotracheale Using the MIC (Minimum Inhibitory Concentration) Test
The following antibiotics were each tested against four isolates of Ornithobacterium rhinotracheale (OR):
The antibiotics were tested against the following isolates of OR:
The concentration needed of each antibiotic was calculated according to its active ingredient.
The four freeze dried bacterial isolates of Ornithobacterium rhinotracheale were reconstituted, inoculated into 10 ml serum broth (supplied by OBP, code 655) and incubated at 37° C. for 48 hours. After incubation the optical density (OD) of each culture was read at 540 nm. To verify purity the cultures were plated out onto Blood Tryptose agar plates, incubated at 37° C., using 5 % CO2 conditions, for 48 hours after which the plates were examined for any contaminants.
12 tubes per isolate for each of the antibiotics were placed into a test tube rack. 2 ml serum broth was dispensed into each of the tubes. 2 ml of the antibiotic were then added to the first tube in the respective row and a twofold dilution were made (32 μg/ml-0.0625 μg/ml). 20 μl of the bacteria was then added to 11 of the tubes. The 12th tube, i.e. negative control received neither antibiotic nor bacteria. The 11th tube i.e. positive control only received 20 μl bacteria. All the tubes were then incubated at 37° C. and the MIC read after 48 hours incubation

The test system of another assay is Brachyspira pilosicoli. Kind of assay: MIC of aivlosin by antibiotic dilution method in agar plates. As for the experimental part: Determination of Minimum Inhibitory Concentration (MIC) of Aivlosin Against Brachyspira pilosicoli
(§1) The MIC of acetyl isovaleryltylosin was determined against 5 field strains of Brachyspira pilosicoli isolated from different pig populations in various parts of England using an antibiotic dilution method. Four replicates of 0.2 ml of each isolate were inoculated into agar plates prepared with antibiotic concentrations from 0.78 to 200 μg/ml. A strain of Brachyspira hyodysenteriae (P18A), for which the MIC for acetyl isovaleryltylosin was already known, was used as a control.

The subject of assay [2] is Brachyspira hyodysenteriae (P18A). Kind of assay: MIC by antibiotic dilution method in agar plates, control strain. To be noted: Control P1 8A. As for the experimental part:
as §1

[3] abbreviates: even at relatively low concentrations.

Turning to `CC[C@H]1OC(=O)C[C@@H](O)[C@H](C)[C@@H](O[C@@H]2O[C@H](C)[C@@H](O)[C@H](N(C)C)[C@H]2O)[C@@H](CCN2C[C@H](C)C[C@H](C)C2)C[C@@H](C)C(=O)/C=C/C(C)=C/[C@@H]1CO[C@@H]1O[C@H](C)[C@@H](O)[C@@H](OC)[C@H]1OC` [Pulmotil, Tilmicosin], the figures for the MIC in assay [1] (the fourth isolate) and in assay [1] (three of the isolates tested) were 8 mg/L (≈ 9.2 µM) and 4 mg/L (≈ 4.6 µM), respectively.
`CCC1OC(=O)CC(OC(C)=O)C(C)C(OC2OC(C)C(OC3CC(C)(O)C(OC(=O)CC(C)C)C(C)O3)C(N(C)C)C2O)C(CC=O)CC(C)C(=O)C=CC(C)=CC1COC1OC(C)C(O)C(OC)C1OC` (stereo not drawn) [Aivlosin, 3-O-acetyl-4″-O-isovaleryl-tylosin]: the “preventing the growth of Ornithobacterium rhinotracheale” value in assay [1] (setting [3]) is given as “particularly effective”. In addition, the “concentration that inhibited the growth (MIC)” value in assay [1] (the isolates tested (four)) amounted to 0.5 mg/L. Moreover, the “preventing the growth of Brachyspira pilosicoli” value with Brachyspira pilosicoli (setting [3]) is listed as “particularly effective”. Further, the MIC was under 0.781 mg/L with Brachyspira pilosicoli (field strain 0P0204-10-97(4)); 25.0 mg/L with Brachyspira pilosicoli (field strain P0098-10-97); 6.25 mg/L in the assay on Brachyspira pilosicoli (field strain P0352-10-98); 6.25 mg/L with Brachyspira pilosicoli (field strain P0525-01-98); 12.5 mg/L with Brachyspira pilosicoli (field strain P0730-09-97); 12.5 mg/L (≈ 12 µM) in assay [2]. Besides, the MIC range in the assay with Brachyspira pilosicoli (field strains, with the exception of isolate P0204-10-97 (4)) fell in the range of 6.25 to 25.0 mg/L.
